Results from US6720324B2, “Selective melanin concentrating hormone-1 (MCH1) receptor antagonists and uses thereof” (Synaptic Pharmaceutical Corporation, priority 2000, dated 2004).
Read-outs that look alike come from different tables or passages of the source.

Tests used:
[1] = biological target: T1, human NPY1 (Homo sapiens, UniProt P25929); assay: Radioligand binding assay, cloned receptor; conditions: read-out: hNPY1 Ki
T1 construct: expressed in transfected cells
T1 sequence (P25929 1-384): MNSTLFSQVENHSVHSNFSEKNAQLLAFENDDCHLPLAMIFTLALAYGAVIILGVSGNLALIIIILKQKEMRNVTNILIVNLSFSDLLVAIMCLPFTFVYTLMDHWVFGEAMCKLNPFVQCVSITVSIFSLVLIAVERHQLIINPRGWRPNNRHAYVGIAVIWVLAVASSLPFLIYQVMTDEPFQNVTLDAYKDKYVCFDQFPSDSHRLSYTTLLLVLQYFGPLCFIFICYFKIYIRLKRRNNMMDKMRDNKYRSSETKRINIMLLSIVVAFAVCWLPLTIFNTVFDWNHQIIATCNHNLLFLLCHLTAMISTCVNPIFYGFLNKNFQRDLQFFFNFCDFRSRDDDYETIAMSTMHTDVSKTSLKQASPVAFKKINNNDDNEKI
Description: (§1) For binding assays, pellets of transfected cells are suspended in ice-cold buffer (20 mM Tris.HCl, 5 mM EDTA, pH 7.4) and homogenized by sonication for 7 sec. The cell lysates are centrifuged at 200×g for 5 min at 4° C. The supernatants are then centrifuged at 40,000×g for 20 min at 4° C. The resulting pellets are washed once in the homogenization buffer and suspended in binding buffer (see methods for radioligand binding). Protein concentrations are determined by the method of Bradford (1976) using bovine serum albumin as the standard. Binding assays are usually performed immediately, however it is possible to prepare membranes in batch and store frozen in liquid nitrogen for future use.
(§2) The methods to obtain the cDNA of the human NPY1, NPY5, GALR1, GALR2, and GALR3 and rat 5-HT2C receptors, express said receptors in heterologous systems, and carry out assays to determine binding affinity are described in the following publications and above: human NPY1 (Larhammar et al., 1992), human NPY5 (U.S. Pat. No. 5,602,024, the disclosure of which is hereby incorporated by reference in its entirety into this application), human Gal1 (Habert-Ortoli et al., 1994), human Gal2 (Smith et al., 1997), human Gal3 (Smith et al., 1998), and rat 5-HT2C (Julius et al., 1988).

[2] = biological target: T2, human GALR3 (Homo sapiens, UniProt O60755); assay: Radioligand binding assay, cloned receptor; conditions: read-out: hGALR3 Ki
T2 construct: expressed in transfected cells
T2 sequence (O60755 1-368): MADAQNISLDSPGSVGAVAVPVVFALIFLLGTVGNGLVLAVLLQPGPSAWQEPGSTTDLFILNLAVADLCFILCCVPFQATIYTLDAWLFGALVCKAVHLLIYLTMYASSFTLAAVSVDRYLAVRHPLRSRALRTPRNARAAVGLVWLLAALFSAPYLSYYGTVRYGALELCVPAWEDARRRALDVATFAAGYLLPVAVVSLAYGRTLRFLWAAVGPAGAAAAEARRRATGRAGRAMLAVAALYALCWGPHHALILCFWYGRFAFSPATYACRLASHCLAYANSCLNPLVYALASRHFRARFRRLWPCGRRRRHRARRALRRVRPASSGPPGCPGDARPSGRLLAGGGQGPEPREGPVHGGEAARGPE
Description: as §1, §2

[3] = biological target: T3, human GALR2 (Homo sapiens, UniProt O43603); assay: Radioligand binding assay, cloned receptor; conditions: read-out: hGALR2 Ki
T3 construct: expressed in transfected cells
T3 sequence (O43603 1-387): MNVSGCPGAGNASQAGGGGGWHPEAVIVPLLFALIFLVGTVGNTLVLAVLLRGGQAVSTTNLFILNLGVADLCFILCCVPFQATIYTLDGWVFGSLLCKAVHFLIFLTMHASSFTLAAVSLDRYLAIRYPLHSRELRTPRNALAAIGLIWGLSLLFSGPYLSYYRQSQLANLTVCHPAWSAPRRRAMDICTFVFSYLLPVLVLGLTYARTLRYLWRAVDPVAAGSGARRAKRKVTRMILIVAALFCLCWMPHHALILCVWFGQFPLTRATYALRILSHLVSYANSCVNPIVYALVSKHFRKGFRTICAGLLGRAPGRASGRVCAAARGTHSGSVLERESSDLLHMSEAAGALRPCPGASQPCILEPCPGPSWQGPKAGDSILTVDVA
Description: as §1, §2

[4] = biological target: T4, rat 5-HT2C receptor (Rattus norvegicus, UniProt P08909); assay: Radioligand binding assay, cloned receptor; conditions: read-out: r5HT2C Ki
T4 construct: expressed in transfected cells
T4 sequence (P08909 33-460): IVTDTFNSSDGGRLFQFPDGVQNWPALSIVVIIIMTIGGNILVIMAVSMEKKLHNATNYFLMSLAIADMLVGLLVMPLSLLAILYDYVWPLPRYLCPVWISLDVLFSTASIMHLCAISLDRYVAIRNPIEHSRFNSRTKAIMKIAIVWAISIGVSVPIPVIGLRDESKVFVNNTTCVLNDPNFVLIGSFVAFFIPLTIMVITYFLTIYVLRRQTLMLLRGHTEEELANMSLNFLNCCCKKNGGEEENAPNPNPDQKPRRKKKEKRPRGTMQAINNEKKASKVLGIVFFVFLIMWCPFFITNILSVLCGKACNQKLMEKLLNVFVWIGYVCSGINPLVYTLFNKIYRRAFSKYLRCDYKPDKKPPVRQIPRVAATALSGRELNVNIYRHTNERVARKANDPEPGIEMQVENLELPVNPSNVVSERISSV
Description: as §1, §2

[5] = biological target: human MCH1 receptor (Homo sapiens, UniProt Q99705); assay: Functional assay: intracellular calcium mobilization (antagonist potency Kb); type: cell-based; set-up: expressed in transfected cells; host or cells: COS-7 cells, transient, DEAE-dextran, plasmid pEXJ.HR-TL231 (ATCC 203197)
Description: Intracellular calcium mobilization assays for the MCH1 receptor were carried out using plasmid pEXJ.HR-TL231 (ATCC Accession No. 203197). COS-7 cells were transiently transfected with DNA encoding the MCH1 receptor utilizing the DEAE-dextran method as described above. The intracellular free calcium concentration was measured by fluorescent imaging using the calcium sensitive fluorscent dye Fluo-3. COS-7 cells expressing the human MCH1 receptor were seeded onto sterile 96 well plates, washed with Hank's balanced salt solution (HBSS), containing 20 mM HEPES, 2.5 mM probenecid, and 0.1% BSA, and loaded with the same buffer containing 3.8 μM Fluo-3 for 1 hour at 37° C. After washing with HBSS to remove the fluo-3 solution, cells were equilibrated for 10 minutes.

human MCH1 receptor, sequence (Q99705 whole entry): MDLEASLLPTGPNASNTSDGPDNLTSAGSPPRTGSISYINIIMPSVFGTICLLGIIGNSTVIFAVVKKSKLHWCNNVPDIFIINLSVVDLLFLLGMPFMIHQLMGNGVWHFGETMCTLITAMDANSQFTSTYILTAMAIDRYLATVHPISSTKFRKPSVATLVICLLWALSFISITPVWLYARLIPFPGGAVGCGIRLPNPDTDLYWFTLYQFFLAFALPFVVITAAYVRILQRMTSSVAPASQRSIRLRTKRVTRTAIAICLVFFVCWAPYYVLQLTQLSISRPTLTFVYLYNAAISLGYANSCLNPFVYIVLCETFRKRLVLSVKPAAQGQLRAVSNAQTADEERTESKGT

## 2-(3,4-DIFLUOROPHENYL)4,5-DIHYDROIMIDAZOLE-1-CARBOXYLIC ACID {3-[4-PHENYL-4-(4-BROMO-5-METHYLTHIOPNEN-2-YL)]PROPYL}-AMIDE [Example 19]
[1]; Table 2
  Ki: > 50 µM
[1]; Table 3
  Ki: > 50 µM
[2]; Table 2
  Ki: > 50 µM
[2]; Table 3
  Ki: > 50 µM
[3]; Table 2
  Ki: > 50 µM
[3]; Table 3
  Ki: > 50 µM
[4]; Table 2
  Ki: 11.7 µM
[4]; Table 3
  Ki: 11.7 µM
[5]; Table 1, cloned human MCH1 receptor, functional assay, read-out: Kb (nM) hMCH1
  Kb: 7 nM
[5]; Table 2, antagonist potency at the human MCH1 receptor, read-out: hMCH1 Kb
  Kb: 7 nM
[5]; Table 3, antagonist potency at the human MCH1 receptor, read-out: hMCH1 Kb
  Kb: 7 nM
